The source made the active and inactive calls.
How the values were obtained:
NADPH oxidase 1 = NADPH oxidase 1 (Homo sapiens, UniProt Q9Y5S8); format: functional, cell-based;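 further: Cell-based assay with luminescence read-out, IC50 derived from inhibitor dose-response curves; intracellular ROS from endogenous NOX1 in intact HT29 colon cancer cells; potency of inhibitors that lower the ROS luminescence signal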
[1] = viability of PTEN-deleted HCT116 cells – cell-based, HCT116 PTEN knockout, dose response (AID 1047); format: functional;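 further: HCT116 colon tumor cells with PTEN knocked out; cells exposed to compound for 60 hours before readout; potency for loss of cell viability measured by luminescence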
[2] = NIH3T3 cell viability loss – ATP luminescence, mouse fibroblasts, counter-screen, dose response (AID 2010); format: functional, cell-based;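 further: cells exposed to compound for about 90 hours before reading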
[3] = Luminescence Cell-Based Dose Confirmation HTS to Identify Inhibitors of Polyadenylation.; format: functional
[4] = viability of HCT116 lacking mutant beta-catenin – cell-based, human colon tumor, dose response (AID 1045); format: functional;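 further: HCT116 colon tumor cells with beta catenin knocked out; cells exposed to compound for 60 hours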
[5] = NIH-3T3 fibroblast cytotoxicity, dose response, cytotoxicity control, cell-based, fluorescence, Alamar Blue, secondary assay (AID 2327); format: functional;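 further: NIH-3T3 mouse fibroblasts cultured with fluconazole at 8 µg/mL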
[6] = fluconazole-exposed Candida albicans growth modulators – fluorescence, retest, confirmation (AID 2467); format: functional, cell-based
[7] = Counterscreen for AddAB inhibitors: absorbance-based bacterial cell-based high throughput dose response assay for inhibitors of bacterial viability. [Related pubchem assays (depositor defined):AID435030, AID449728, AID449731, AID488942, AID488955, AID488956]; format: functional
[8] = Trypanosoma cruzi growth suppression in host cells – NIH3T3 host cells, beta-gal luminescence, confirmation (AID 2044); format: functional, cell-based;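 further: intracellular parasites grown in NIH/3T3 mouse fibroblasts as host cells; luminescent beta-galactosidase reporter signal from transgenic T. cruzi replicating inside host cells; inhibitors lower the luminescence signal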
INS1 = assay: INS-1E survival protection against cytokine death – cell-based, luminescence, retest, dose response (AID 449756); format: functional; conditions: Rattus norvegicus;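 further: cell death triggered by IL-1 beta plus TNF-alpha plus IFN-gamma mixture; protective hits raise ATP signal compared with cytokine alone wells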
[9] = molecular target: Nuclear receptor subfamily 5 group A member 2 (Homo sapiens, UniProt O00482); format: functional, cell-based;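 further: HEK293T cells transfected with LRH-1 and a StAR promoter luciferase reporter; potency for inhibitors that lower LRH-1 driven reporter light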
Sequence of Nuclear receptor subfamily 5 group A member 2 (O00482 whole entry): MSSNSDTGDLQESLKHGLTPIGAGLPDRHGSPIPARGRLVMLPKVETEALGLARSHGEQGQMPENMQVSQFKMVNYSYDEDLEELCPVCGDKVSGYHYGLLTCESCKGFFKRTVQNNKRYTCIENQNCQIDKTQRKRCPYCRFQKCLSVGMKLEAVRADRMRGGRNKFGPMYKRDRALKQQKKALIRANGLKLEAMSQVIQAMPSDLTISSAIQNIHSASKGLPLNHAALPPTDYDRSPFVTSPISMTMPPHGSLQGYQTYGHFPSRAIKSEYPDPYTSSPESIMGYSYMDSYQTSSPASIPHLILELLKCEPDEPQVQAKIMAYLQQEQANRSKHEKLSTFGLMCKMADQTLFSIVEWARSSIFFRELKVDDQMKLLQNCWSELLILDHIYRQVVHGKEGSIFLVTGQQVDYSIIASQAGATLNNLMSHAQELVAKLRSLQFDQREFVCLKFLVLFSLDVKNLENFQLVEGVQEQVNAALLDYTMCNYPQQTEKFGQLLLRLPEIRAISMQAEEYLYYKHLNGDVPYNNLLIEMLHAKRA

[10] = nonselective StAR promoter luciferase inhibitors – cell-based, luminescence, luciferase reporter, counter-screen for LRH-1 inverse agonist project, dose response (AID 651969); format: functional
Steroidogenic factor 1 = Steroidogenic factor 1 (Homo sapiens, UniProt Q13285); assay: Counterscreen for inverse agonists of the liver receptor homolog-1 (LRH-1; NR5A2): Luminescence-based cell-based high throughput dose response assay to identify inverse agonists of the Steroidogenic Factor 1 Nuclear Receptor (SF1; NR5A1).; format: functional
Sequence of Steroidogenic factor 1 (Q13285 whole entry): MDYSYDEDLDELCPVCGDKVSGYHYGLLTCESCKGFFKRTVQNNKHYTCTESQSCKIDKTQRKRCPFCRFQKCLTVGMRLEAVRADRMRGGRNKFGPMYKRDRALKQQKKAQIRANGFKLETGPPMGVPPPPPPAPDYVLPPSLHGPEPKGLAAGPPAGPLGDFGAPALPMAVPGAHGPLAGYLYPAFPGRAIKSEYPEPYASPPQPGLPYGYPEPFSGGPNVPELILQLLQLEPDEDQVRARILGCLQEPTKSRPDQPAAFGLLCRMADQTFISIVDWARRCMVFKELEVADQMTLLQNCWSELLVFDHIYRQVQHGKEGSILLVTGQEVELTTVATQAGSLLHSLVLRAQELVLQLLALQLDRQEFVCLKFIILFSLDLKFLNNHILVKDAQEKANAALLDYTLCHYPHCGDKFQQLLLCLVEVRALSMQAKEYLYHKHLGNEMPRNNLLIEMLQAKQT

[11] = mitochondrial function rescue without frataxin homolog – Friedreich's ataxia, plus single-dose screen, dose response (AID 1465); format: functional;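 further: yeast depleted of Yfh1p frataxin homolog grown on glycerol needing respiration; WST-1 tetrazolium dye reduction as measure of cellular dehydrogenase metabolic activity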
[12] = molecular target: T1, Replicative DNA helicase DnaB (Mycobacterium tuberculosis, UniProt P9WMR3); assay: DnaB intein splicing inhibitors, dose response, biochemical, cell-free fluorescence (AID 449749); format: functional
T1 sequence (P9WMR3 whole entry): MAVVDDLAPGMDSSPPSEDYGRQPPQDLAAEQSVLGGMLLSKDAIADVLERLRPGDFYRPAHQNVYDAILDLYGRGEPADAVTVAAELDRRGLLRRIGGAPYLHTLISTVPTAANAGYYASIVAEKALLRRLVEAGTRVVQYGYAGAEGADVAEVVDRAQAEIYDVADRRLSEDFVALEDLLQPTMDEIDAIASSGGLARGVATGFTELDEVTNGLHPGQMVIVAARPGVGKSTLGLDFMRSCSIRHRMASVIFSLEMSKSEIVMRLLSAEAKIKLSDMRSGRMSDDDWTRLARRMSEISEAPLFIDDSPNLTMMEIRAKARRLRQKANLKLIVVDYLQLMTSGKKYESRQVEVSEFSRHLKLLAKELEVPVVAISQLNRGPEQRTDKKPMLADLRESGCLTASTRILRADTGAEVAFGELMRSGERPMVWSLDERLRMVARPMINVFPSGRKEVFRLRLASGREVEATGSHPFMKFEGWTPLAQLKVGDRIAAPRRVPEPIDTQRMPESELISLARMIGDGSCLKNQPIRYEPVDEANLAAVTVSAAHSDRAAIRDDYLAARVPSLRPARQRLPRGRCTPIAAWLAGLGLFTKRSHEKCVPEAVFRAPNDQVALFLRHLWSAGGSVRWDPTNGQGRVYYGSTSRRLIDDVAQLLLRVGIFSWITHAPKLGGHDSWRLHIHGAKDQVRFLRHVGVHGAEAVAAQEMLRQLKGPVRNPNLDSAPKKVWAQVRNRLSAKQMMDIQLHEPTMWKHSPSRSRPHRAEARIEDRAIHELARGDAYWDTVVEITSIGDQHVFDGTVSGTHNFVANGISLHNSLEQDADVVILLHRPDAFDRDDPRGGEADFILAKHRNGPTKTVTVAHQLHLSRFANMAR

Leucine aminopeptidase = molecular target: T2, Leucine aminopeptidase (Plasmodium falciparum 3D7, UniProt Q8IL11); assay: P. falciparum M17LAP inhibitors, primary screen, biochemical, fluorogenic H-Leu-NHMec substrate, 1536-well (AID 1619); format: functional
T2 sequence (Q8IL11 whole entry): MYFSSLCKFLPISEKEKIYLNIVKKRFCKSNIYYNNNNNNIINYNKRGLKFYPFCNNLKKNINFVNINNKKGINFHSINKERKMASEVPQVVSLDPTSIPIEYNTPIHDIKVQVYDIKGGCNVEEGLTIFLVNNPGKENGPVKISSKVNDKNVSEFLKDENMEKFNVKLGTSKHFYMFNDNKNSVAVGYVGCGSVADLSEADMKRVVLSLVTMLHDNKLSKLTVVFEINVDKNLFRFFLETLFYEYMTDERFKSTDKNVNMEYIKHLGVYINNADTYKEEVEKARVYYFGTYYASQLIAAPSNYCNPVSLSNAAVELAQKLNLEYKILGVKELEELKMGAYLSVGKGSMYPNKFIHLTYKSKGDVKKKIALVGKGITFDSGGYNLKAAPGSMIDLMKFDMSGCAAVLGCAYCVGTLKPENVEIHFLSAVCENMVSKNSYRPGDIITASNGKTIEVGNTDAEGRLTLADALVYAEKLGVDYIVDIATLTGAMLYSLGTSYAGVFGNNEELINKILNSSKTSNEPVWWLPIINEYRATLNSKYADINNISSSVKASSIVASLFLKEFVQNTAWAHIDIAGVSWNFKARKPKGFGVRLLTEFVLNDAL

[13] = molecular target: T3, Heat shock factor protein 1 (Mus musculus, UniProt P38532); assay: enhancement of HSF1-driven luciferase signal – cell-based, NIH3T3, luminescence, dose retest, confirmation (AID 435004); format: functional;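 further: stress induced by proteasome inhibitor MG132 added 30 min after compound; luciferase reporter driven by HSF1 response element in NIH3T3 cells; actives raise luminescence as potentiators of the MG132 stress response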
T3 sequence (P38532 whole entry): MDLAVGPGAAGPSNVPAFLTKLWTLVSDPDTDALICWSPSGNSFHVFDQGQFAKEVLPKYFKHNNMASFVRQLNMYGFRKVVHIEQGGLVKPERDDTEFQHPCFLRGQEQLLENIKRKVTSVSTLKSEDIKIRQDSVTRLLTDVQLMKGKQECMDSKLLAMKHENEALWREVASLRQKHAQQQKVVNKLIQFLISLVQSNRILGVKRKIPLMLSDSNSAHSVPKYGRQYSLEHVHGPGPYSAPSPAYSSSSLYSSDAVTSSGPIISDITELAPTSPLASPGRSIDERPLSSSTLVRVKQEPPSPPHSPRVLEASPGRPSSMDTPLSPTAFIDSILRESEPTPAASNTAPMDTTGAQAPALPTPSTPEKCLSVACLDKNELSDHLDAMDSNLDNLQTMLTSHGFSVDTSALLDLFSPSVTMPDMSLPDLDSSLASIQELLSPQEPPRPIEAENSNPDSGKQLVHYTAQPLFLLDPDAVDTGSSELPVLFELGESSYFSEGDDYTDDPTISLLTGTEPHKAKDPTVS

Protein RecA = molecular target: T4, Protein RecA (Mycobacterium tuberculosis, UniProt P9WHJ3); assay: Fluorescence Cell-Free Homogeneous Dose Retest to Identify Inhibitors of RecA-Intein Splicing Activity. [Related pubchem assays (depositor defined):AID2097, AID2223, AID489010, AID492950]; format: functional
T4 sequence (P9WHJ3 whole entry): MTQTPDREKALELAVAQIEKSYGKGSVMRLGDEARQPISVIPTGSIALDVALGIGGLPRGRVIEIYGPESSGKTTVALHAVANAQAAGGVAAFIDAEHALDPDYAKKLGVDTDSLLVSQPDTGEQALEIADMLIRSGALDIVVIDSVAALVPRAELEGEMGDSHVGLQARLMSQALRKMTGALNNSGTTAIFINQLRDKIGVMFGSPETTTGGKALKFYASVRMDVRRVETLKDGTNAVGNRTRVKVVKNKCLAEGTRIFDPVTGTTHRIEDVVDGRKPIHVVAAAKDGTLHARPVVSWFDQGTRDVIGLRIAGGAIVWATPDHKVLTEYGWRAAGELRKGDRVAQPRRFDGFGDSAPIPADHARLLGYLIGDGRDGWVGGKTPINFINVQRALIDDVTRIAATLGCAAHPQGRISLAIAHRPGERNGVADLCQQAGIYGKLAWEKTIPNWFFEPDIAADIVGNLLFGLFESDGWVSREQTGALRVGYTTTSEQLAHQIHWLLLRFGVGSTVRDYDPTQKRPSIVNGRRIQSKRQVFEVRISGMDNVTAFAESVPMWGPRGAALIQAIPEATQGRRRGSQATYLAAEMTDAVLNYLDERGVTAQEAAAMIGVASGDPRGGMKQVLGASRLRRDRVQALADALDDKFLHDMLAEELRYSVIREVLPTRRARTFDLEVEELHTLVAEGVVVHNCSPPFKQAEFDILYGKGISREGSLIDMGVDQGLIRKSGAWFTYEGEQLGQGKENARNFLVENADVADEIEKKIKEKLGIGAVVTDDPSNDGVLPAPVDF

Aspartyl aminopeptidase = Aspartyl aminopeptidase (Plasmodium falciparum 3D7, UniProt Q8I2J3); assay: Counterscreen for inhibitors of M1 and M17 aminopeptidases: QFRET-based biochemical high throughput dose response assay for inhibitors of the Plasmodium falciparum M18 Aspartyl Aminopeptidase (PFM18AAP). [Related PubChem assays: 1619 (Screening assay (M17LAP inhibitors).), 1445 (Screening assay (M1AAP inhibitors).)]
Sequence of Aspartyl aminopeptidase (Q8I2J3 whole entry): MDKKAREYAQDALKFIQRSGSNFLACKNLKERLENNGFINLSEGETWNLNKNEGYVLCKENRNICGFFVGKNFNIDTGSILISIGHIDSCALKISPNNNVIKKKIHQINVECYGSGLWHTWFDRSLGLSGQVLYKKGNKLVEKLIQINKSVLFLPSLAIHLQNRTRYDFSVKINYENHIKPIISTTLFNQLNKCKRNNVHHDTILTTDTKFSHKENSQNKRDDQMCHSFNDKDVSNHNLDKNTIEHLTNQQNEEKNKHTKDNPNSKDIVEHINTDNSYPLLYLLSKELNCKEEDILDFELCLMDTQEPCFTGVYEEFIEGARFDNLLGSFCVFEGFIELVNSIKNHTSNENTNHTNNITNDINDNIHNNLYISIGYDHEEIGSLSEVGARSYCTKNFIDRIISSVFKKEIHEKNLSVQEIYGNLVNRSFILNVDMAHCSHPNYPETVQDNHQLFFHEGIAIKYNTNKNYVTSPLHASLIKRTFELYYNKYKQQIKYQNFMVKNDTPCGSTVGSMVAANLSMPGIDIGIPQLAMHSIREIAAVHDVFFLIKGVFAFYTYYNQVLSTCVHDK

Procathepsin L = Procathepsin L (Homo sapiens, UniProt P07711); assay: CTSL1 protease inhibition – biochemical, QFRET, 1536-well, counter-screen for M1/M17 aminopeptidase inhibitor project, dose response (AID 2214)
Sequence of Procathepsin L (P07711 whole entry): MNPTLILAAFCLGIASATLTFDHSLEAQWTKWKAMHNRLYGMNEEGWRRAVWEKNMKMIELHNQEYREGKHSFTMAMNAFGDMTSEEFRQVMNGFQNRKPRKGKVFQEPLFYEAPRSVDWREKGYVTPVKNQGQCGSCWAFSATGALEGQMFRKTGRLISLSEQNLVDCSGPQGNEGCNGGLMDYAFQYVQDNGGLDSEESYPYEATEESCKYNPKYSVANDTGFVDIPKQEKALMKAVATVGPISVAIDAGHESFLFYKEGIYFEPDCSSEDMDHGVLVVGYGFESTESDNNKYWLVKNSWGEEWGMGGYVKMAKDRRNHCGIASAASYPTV

Sequence of NADPH oxidase 1 (Q9Y5S8 whole entry): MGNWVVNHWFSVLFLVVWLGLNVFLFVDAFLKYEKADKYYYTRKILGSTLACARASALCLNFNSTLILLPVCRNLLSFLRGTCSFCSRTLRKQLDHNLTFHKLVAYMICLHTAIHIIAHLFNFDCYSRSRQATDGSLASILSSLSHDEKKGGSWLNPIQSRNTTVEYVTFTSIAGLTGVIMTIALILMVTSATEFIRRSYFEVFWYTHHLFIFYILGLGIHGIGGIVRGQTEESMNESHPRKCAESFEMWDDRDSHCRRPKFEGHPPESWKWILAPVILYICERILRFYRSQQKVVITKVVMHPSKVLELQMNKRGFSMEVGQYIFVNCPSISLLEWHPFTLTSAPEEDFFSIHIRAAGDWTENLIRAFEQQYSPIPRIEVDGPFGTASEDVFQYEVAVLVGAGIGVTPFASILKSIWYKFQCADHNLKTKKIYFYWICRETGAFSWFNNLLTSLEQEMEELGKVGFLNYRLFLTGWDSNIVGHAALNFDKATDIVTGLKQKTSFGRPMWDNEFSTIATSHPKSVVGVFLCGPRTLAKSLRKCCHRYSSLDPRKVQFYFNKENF

Structure (SMILES): COc1ccc2c(Cl)c(C(=O)Oc3ccccc3[N+](=O)[O-])sc2c1
- IC50 (NADPH oxidase 1): > 17 µM (not active)

Structure (SMILES): Cc1ccc2[nH]c(/C(C#N)=C\c3ccc([N+](=O)[O-])o3)nc2c1
- EC50 [1]: 1.02 µM (active)
- EC50 [2]: > 60 µM (not active)
- EC50 [3]: 5.85 µM (active)
- EC50 [4]: 1.04 µM (active)
- EC50 [5]: 3.01 µM (inconclusive)
- EC50 [6]: 0.387 µM (active)
- IC50 [7]: > 119 µM (inactive)
- EC50 [8]: 0.604 µM (active)
- AC50 (INS1): 1.92 µM (active)

Structure (SMILES): CC1CC(C)CN(c2cc(N(C)CCO)c([N+](=O)[O-])c3nonc23)C1 (stereo not given)
- IC50 [9]: 6.21 µM (active)
- IC50 [10]: 35.9 µM (inactive)
- IC50 (Steroidogenic factor 1): 2.15 µM (active)
- EC50 [11]: > 100 µM (active)

Structure (SMILES): Oc1cc(-c2ccc(Cl)c(Cl)c2)[nH]n1
- AC50 [12]: 2.01 µM (active)
- IC50 (Leucine aminopeptidase): < 1 µM (active)
- EC50 [13]: > 260 µM (inactive)
- EC50 (Protein RecA): 0.852 µM (active)
- IC50 (Aspartyl aminopeptidase): > 73.5 µM (not active)
- IC50 (Procathepsin L): > 59.6 µM (not active)
